Assay results from the supplement of paper PMC11208160.

Experiment: recombinant UMI read abundance after kanamycin selection (control-corrected) (log10(CPM+1)); higher = more efficient recombination; extreme values may be limits of the assay; sequences stand for … in AGTGCAGAGAAAATCGGCCAGTTTTCTCTGCCTGCAGTCCGCATGCCGTGGGACCCCTTGGGTTCTAACCTGTTGCCTAGATTTATGCAGCGGACTGCCTTTCTCCCAAAGTGATAAACCGG…AGGTTGGTTTCACT; site = the 11-nt donor
Summary of the method: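 Under IPTG (0.07 mM) plus kanamycin, or without selection, Escherichia coli carrying a UMI-tagged donor and donor-binding-loop pair library and a target plasmid for the IS621 bridge recombinase were plated in two replicates. Recombinant UMIs were PCR-amplified across the donor–target junction and sequenced. Counts were converted to CPM, averaged over replicates, scaled by control-derived factors and reported as log10(CPM+1).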
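Also: IS621 bridge recombinase in Escherichia coli cells against a fixed T5 target plasmid.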

Sequence | recombinant UMI read abundance (log10)
GAGTGGACATGGACCGGTTTTCCCGGTAATCCGTATTTGAC (site GACTGGACTGT) | 0.208
GAGTGGACATGGACCGGTTTTCCCGGTAATCCGTATTTGAC (site GAGTGGACTGT) | 2.6
GAGTGGACATGGACCGGTTTTCCCGGTAATCCGTATTTGAC (site GATTGGACTGT) | 0
GATAAGCCATGGACCGGTTTTCCCGGTAATCCGTATTTGCC (site GATAAGCCTGG) | 0
GATACGTCATGGACCGGTTTTCCCGGTAATCCGTATTTGTT (site GATACGTCTAA) | 0.338
GATACGTCATGGACCGGTTTTCCCGGTAATCCGTATTTGTT (site GCTACGTCTAA) | 0.00442
GATACGTCATGGACCGGTTTTCCCGGTAATCCGTATTTGTT (site GGTACGTCTAA) | 0.0473
GATACGTCATGGACCGGTTTTCCCGGTAATCCGTATTTGTT (site GTTACGTCTAA) | 0.0167
GATAGATCATGGACCGGTTTTCCCGGTAATCCGTATTTGAG (site GATAGATCTCT) | 1.83
GATCATCCATGGACCGGTTTTCCCGGTAATCCGTATTTGCT (site GATAATCCTAG) | 0
GATCATCCATGGACCGGTTTTCCCGGTAATCCGTATTTGCT (site GATCATCCTAG) | 0.452
GATCATCCATGGACCGGTTTTCCCGGTAATCCGTATTTGCT (site GATGATCCTAG) | 0
GATCATCCATGGACCGGTTTTCCCGGTAATCCGTATTTGCT (site GATTATCCTAG) | 0
GATCCAACATGGACCGGTTTTCCCGGTAATCCGTATTTGTA (site GATCCAACTTA) | 0.0155
GATCCAACATGGACCGGTTTTCCCGGTAATCCGTATTTGTA (site GCTCCAACTTA) | 0.00727
GATCCAACATGGACCGGTTTTCCCGGTAATCCGTATTTGTA (site GGTCCAACTTA) | 0.021
GATCCAACATGGACCGGTTTTCCCGGTAATCCGTATTTGTA (site GTTCCAACTTA) | 0.0286

Sequence | recombinant UMI read abundance (log10)
GATCCGTCATGGACCGGTTTTCCCGGTAATCCGTATTTGTA (site GATCCGTCTTA) | 1.26
GATCGCTCATGGACCGGTTTTCCCGGTAATCCGTATTTGTT (site GATCGCTCTAA) | 0.523
GATCTGCCATGGACCGGTTTTCCCGGTAATCCGTATTTGAA (site GATCTGCCTTT) | 0.00302
GATGAAACATGGACCGGTTTTCCCGGTAATCCGTATTTGCC (site GATGAAACTGG) | 1.72
GATGGGACATGGACCGGTTTTCCCGGTAATCCGTATTTGAC (site GATAGGACTGT) | 1.69
GATGGGACATGGACCGGTTTTCCCGGTAATCCGTATTTGAC (site GATCGGACTGT) | 0.285
GATGGGACATGGACCGGTTTTCCCGGTAATCCGTATTTGAC (site GATGGGACTGT) | 2.75
GATGGGACATGGACCGGTTTTCCCGGTAATCCGTATTTGAC (site GATTGGACTGT) | 0
GATGTAACATGGACCGGTTTTCCCGGTAATCCGTATTTGCT (site AATGTAACTAG) | 1.24
GATGTAACATGGACCGGTTTTCCCGGTAATCCGTATTTGCT (site CATGTAACTAG) | 1.31
GATGTAACATGGACCGGTTTTCCCGGTAATCCGTATTTGCT (site GATGTAACTAG) | 1.83
GATGTAACATGGACCGGTTTTCCCGGTAATCCGTATTTGCT (site TATGTAACTAG) | 1.83
GATGTATCATGGACCGGTTTTCCCGGTAATCCGTATTTGCA (site GATGTATCTTG) | 2.3
GATGTTCCATGGACCGGTTTTCCCGGTAATCCGTATTTGGT (site GATGTTCCTAC) | 0.0188
GATGTTCCATGGACCGGTTTTCCCGGTAATCCGTATTTGGT (site GCTGTTCCTAC) | 0.00282
GATGTTCCATGGACCGGTTTTCCCGGTAATCCGTATTTGGT (site GGTGTTCCTAC) | 0
GATGTTCCATGGACCGGTTTTCCCGGTAATCCGTATTTGGT (site GTTGTTCCTAC) | 0.00388
